From patent US20120100990A1, “4 -AMINOPICOLINATES AND THEIR USE AS HERBICIDES” (SYNGENTA CROP PROTECTION LLC, priority 2009, published 2012) come the findings set out here.

Type in all cases: in vivo
Test [1] deals with Alopecurus myosuroides (ALOMY). Briefly: Pre-emergence biological efficacy, glasshouse pot test. The conditions noted are these: 312 h, 1,000 g/ha, evaluated after 13 days, 100=total damage, 0=no damage, read-out: Percentage damage caused to weed species, pre-emergence, ALOMY. As to the method: (§1) Seeds of Alopecurus myosuroides (ALOMY), Setaria faberi (SETFA), Echinochloa crus-galli (ECHCG), Solanum nigrum (SOLNI), Amaranthus retroflexus (AMARE) and Ipomea hederaceae (IPOHE) were sown in standard soil in pots. After cultivation for one day under controlled conditions in a glasshouse (at 24/16° C., day/night; 14 hours light; 65% humidity), the plants were sprayed with an aqueous spray solution derived from the formulation of the technical active ingredient in acetone/water (50:50) solution containing 0.5% Tween 20 (polyoxyethylene sorbitan monolaurate, CAS RN 9005-64-5) to give a final dose of 1000 or 250 g/ha of test compound. The test plants were then grown under controlled conditions in the glasshouse (at 24/16° C., day/night; 14 hours light; 65% humidity) and watered twice daily. After 13 days the test was evaluated (100=total damage to plant; 0=no damage to plant).

Test [2] has as its system Amaranthus retroflexus (AMARE). Described as above. To be noted: 312 h, 1,000 g/ha, evaluated after 13 days, 100=total damage, 0=no damage, read-out: Percentage damage caused to weed species, pre-emergence, AMARE. As to the method: as §1
In test [3] the test system is Echinochloa crus-galli (ECHCG). The test is described as above. The conditions noted are these: 312 h, 1,000 g/ha, evaluated after 13 days, 100=total damage, 0=no damage, read-out: Percentage damage caused to weed species, pre-emergence, ECHCG. The protocol:
as §1

Test [4] relates to Ipomea hederaceae (IPOHE). The description is as above. The conditions noted are these: Ipomoea hederacea, 312 h, 1,000 g/ha, evaluated after 13 days, 100=total damage, 0=no damage, read-out: Percentage damage caused to weed species, pre-emergence, IPOHE. As to the method:
as §1

Test [5] has as its system Setaria faberi (SETFA). The test is described as above. The conditions noted are these: 312 h, 1,000 g/ha, evaluated after 13 days, 100=total damage, 0=no damage, read-out: Percentage damage caused to weed species, pre-emergence, SETFA. As to the method:
as §1

Test [6] relates to Solanum nigrum (SOLNI). Described as above. To be noted: 312 h, 1,000 g/ha, evaluated after 13 days, 100=total damage, 0=no damage, read-out: Percentage damage caused to weed species, pre-emergence, SOLNI. As to the method: as §1
Test [7] concerns Alopecurus myosuroides (ALOMY). Briefly: Post-emergence biological efficacy, glasshouse pot test. The conditions noted are these: 312 h, 1,000 g/ha, evaluated after 13 days, 100=total damage, 0=no damage, read-out: Percentage damage caused to weed species, post-emergence, ALOMY. As to the method: as §1, with “for 8 days” for “for one day”, “grown on” for “grown”, “in a” for “in the”

Test [8] relates to Amaranthus retroflexus (AMARE). The test is described as above. To be noted: 312 h, 1,000 g/ha, evaluated after 13 days, 100=total damage, 0=no damage, read-out: Percentage damage caused to weed species, post-emergence, AMARE. The protocol:
as §1, with “for 8 days” for “for one day”, “grown on” for “grown”, “in a” for “in the”

Test [9] concerns Echinochloa crus-galli (ECHCG). The test is described as above. To be noted: 312 h, 1,000 g/ha, evaluated after 13 days, 100=total damage, 0=no damage, read-out: Percentage damage caused to weed species, post-emergence, ECHCG. The protocol:
as §1, with “for 8 days” for “for one day”, “grown on” for “grown”, “in a” for “in the”

For test [10], the system named is Ipomea hederaceae (IPOHE). Described as above. To be noted: Ipomoea hederacea, 312 h, 1,000 g/ha, evaluated after 13 days, 100=total damage, 0=no damage, read-out: Percentage damage caused to weed species, post-emergence, IPOHE. As to the method:
as §1, with “for 8 days” for “for one day”, “grown on” for “grown”, “in a” for “in the”

Test [11] relates to Setaria faberi (SETFA). The description is as above. The conditions noted are these: 312 h, 1,000 g/ha, evaluated after 13 days, 100=total damage, 0=no damage, read-out: Percentage damage caused to weed species, post-emergence, SETFA. The protocol: as §1, with “for 8 days” for “for one day”, “grown on” for “grown”, “in a” for “in the”
For test [12], the system named is Solanum nigrum (SOLNI). The description is as above. The conditions noted are these: 312 h, 1,000 g/ha, evaluated after 13 days, 100=total damage, 0=no damage, read-out: Percentage damage caused to weed species, post-emergence, SOLNI. As to the method: as §1, with “for 8 days” for “for one day”, “grown on” for “grown”, “in a” for “in the”

For `C=Cc1c(NCc2ccccc2C(F)(F)F)cc(Cl)nc1C(=O)OC` [Compound 74-12, 6-Chloro-3-ethenyl-4-[(2-trifluoromethyl-phenylmethyl)-amino]-pyridine-2-carboxylic acid methyl ester], the pest or weed control at 1000 g/ha in test [1], in [2], in [3], in [4], in test [5] and in test [6] was 0% throughout. Further, the pest or weed control at 1000 g/ha in test [7] is 10%; in [8], 100%; in [9], 20%; in test [10], 10%; in [11], 10%; in test [12], 70%.
`COC(=O)c1nc(Cl)cc(NCc2ccccc2OC)c1Cl` [Compound 73-2, 3,6-Dichloro-4-[(2-methoxyphenyl-methyl)-amino]-pyridine-2-carboxylic acid methyl ester]: the pest or weed control at 1000 g/ha in test [1] worked out at 50%; in test [2] it was 100%; in test [3] it was 20%; in test [4], 100%; in test [5], 80%; in test [6], 100%. Moreover, the pest or weed control at 1000 g/ha in [7] stood at 40%; in test [8], 100%; in [9] it was 40%; in [10], 70%; in test [11] it was 80%; in test [12], 90%.
In the case of `COC(=O)c1nc(-c2ccc(Cl)c(OC)c2F)cc(NCc2ccco2)c1Cl` [Compound 26-164, 3-chloro-6-(4-chloro-2-fluoro-3-methoxy-phenyl)-4-[(furan-2-ylmethyl)-amino]-pyridine-2-carboxylic acid methyl ester], the pest or weed control at 1000 g/ha in test [1] is 50%; in test [2] it was 100%; in [3], 90%; in test [4], 100%; in test [5] it was 90%; in test [6] it was 100%. Also, the pest or weed control at 1000 g/ha was 70% in test [7]; 100% in test [8]; 70% in test [9]; 90% in test [10]; 90% in test [11]; 100% in test [12].
With `CCO/C=C\c1c(NCc2ccco2)cc(-c2ccc(Cl)c(OC)c2F)nc1C(=O)OC` [Compound 26-463, (Z)-6-(4-chloro-2-fluoro-3-methoxy-phenyl)-3-(2-ethoxyethenyl)-4-[(furan-2-ylmethyl)-amino]-pyridine-2-carboxylic acid methyl ester], the pest or weed control at 1000 g/ha worked out at 10% in test [1]; 0% in test [2]; 10% in test [3]; 0% in test [4]; 10% in test [5]; 10% in test [6]. The pest or weed control at 1000 g/ha was determined as 0% in [7]; 20% in [8]; 0% in [9]; 40% in test [10]; 0% in [11]; 60% in test [12].
Consider `C=Cc1c(NCC2CC2)cc(Cl)nc1C(=O)OC` [Compound 1-12, 6-chloro-4-cyclopropylmethylamino-3-ethenyl-pyridine-2-carboxylic acid methyl ester], for which the pest or weed control at 1000 g/ha in [1] worked out at 80%; in test [2] it was 100%; in test [3], 90%; in [4] it was 90%; in [5], 90%; in [6], 100%. The pest or weed control at 1000 g/ha was 70% in test [7]; 100% in test [8]; 80% in [9]; 70% in test [10]; 90% in test [11]; 90% in [12].
As to `COC(=O)c1nc(Cl)c(Cl)c(NCc2ccccc2[N+](=O)[O-])c1Br` [Compound 15-41, 3-bromo-5,6-dichloro-4-[(2-nitrophenyl-methyl)-amino]-pyridine-2-carboxylic acid methyl ester], the pest or weed control at 1000 g/ha in [1] came out at 20%; in test [2], 100%; in [3], 40%; in test [4], 100%; in [5], 30%; in test [6] it was 80%. Moreover, the pest or weed control at 1000 g/ha in [7] is 10%; in test [8], 100%; in [9], 0%; in test [10], 80%; in test [11], 70%; in test [12], 100%.
Turning to `COC(=O)c1nc(Cl)cc(NCc2cccc(F)c2)c1Cl` [Compound 7-2, 3,6-Dichloro-4-[(3-fluorophenylmethyl)-amino]-pyridine-2-carboxylic acid methyl ester], the pest or weed control at 1000 g/ha came out at 50% in test [1]; 100% in test [2]; 50% in [3]; 100% in test [4]; 80% in [5]; 100% in [6]. The pest or weed control at 1000 g/ha in test [7] came out at 50%; in [8] it was 100%; in [9] it was 50%; in [10] it was 80%; in [11] it was 90%; in test [12], 100%.
Take `C=Cc1c(NCc2c(Cl)cccc2Cl)cc(Cl)nc1C(=O)OC` [Compound 21-12, 6-Chloro-4-[(2,6-dichlorophenyl-methyl)-amino]-3-ethenyl-pyridine-2-carboxylic acid methyl ester]: the pest or weed control at 1000 g/ha in [1] came to 0%; in test [2], 100%; in test [3] it was 0%; in [4], 30%; in test [5], 0%; in [7], 20%. Also, the pest or weed control at 1000 g/ha in test [8] came out at 100%; in [9] it was 10%; in test [10], 30%; in test [11], 0%; in test [12], 80%.
